Reference: patent publication US7943142B2, “Euglenoid derived alkaloid” (priority 2008, dated 2011)

How the values were obtained:
[1] = system: GH4C1 rat pituitary cells; experiment: Cytotoxicity against GH4C1 rat pituitary tissue culture cells; assay type: cell-based
[2] = system: Gomphonema parvum (diatom); experiment: Algal growth (chlorophyll a) under euglenophycin exposure; assay type: cell-based; conditions: 0.3, 3 and 30 mg/L; chlorophyll a read daily for four days; FIG. 2
Experimental: (§1) Clonal isolates of five representative cyanoprokaryote, diatom, and green algae were grown in BG11 media at 28 C on a 14:10 L:D cycle. At mid-exponential phase growth, […] aliquots of each culture was transferred to 96-well plates. Carrier solvent (control) and euglenophycin toxin was added to three of more replicate vials (at 0, 300 ppb, 3 ppm, and 30 ppm) and growth was monitored for […].
(§2) To evaluate the euglenophycin against the growth rate of selected algal taxa. Cultures of five algal species grown in batch culture were exposed to the euglenophycin. The culture include Microcystis aeruginosa (cyanobacteria), Planktothrix (cyanobacteria), Gomphonema parvum (diatom), Scenedesmus dimorphus (green algae), and Oocystis polymorpha (green algae). The cultures were grown using 14:10 hour L:D cycles, in BG11 culture media. When the alga reached exponential phase, the cells were dispensed into Falcon 96-well tissue culture plates and were dosed with euglenophycin at 0, 0.3, 3 and 30 mg/L concentrations. Solvent blanks (acetone) were included in the control test. Readings of chlorophyll a were made on a BMG Labtech FLUOstar Omega spectrometer daily for four days.

[3] = system: Microcystis aeruginosa (cyanobacteria); experiment: as above; assay type: cell-based; conditions: 0.3, 3 and 30 mg/L; chlorophyll a read daily for four days; FIG. 2
Experimental: as §1, §2

[4] = system: Oocystis polymorpha (green algae); experiment: as above; assay type: cell-based; conditions: 0.3, 3 and 30 mg/L; chlorophyll a read daily for four days; FIG. 2
Experimental: as §1, §2

[5] = system: Planktothrix (cyanobacteria); experiment: as above; assay type: cell-based; conditions: 0.3, 3 and 30 mg/L; chlorophyll a read daily for four days; FIG. 2
Experimental: as §1, §2

[6] = system: Scenedesmus dimorphus (green algae); experiment: as above; assay type: cell-based; conditions: 0.3, 3 and 30 mg/L; chlorophyll a read daily for four days; FIG. 2
Experimental: as §1, §2

fish = experiment: Fish bioassay (ichthyotoxicity); assay type: in vivo; conditions: purified toxin
Experimental: The toxic solvent extracts were subjected to HPLC analytical fractionation. Bioassay guided fractionation was used in all phases of separation to track sample activity and cytotoxic and/or ichthyotoxic extracts were identified. HPLC purification was carried out using a WATERS HPLC system (WATERS 2767 Sample Manager, 1525 Binary Pump, 510 pump, WATERS 2996 PDA and a WATERS ZQ Single Quadrature Mass Detector outfitted with an active flow splitter, switching valve using MASS LYNX software (Waters Corporation, Milford, Mass.). The HPLC/MS method was a water/acetone gradient with 0.2% TFA in both solvents. Extract was loaded onto a Phenomenex (Phenomenex Corporation, Torrance, Calif.) C18 LUNA 3 μm particle size, 250×4.6 mm column. The flow scheme conditions were: 1 mL/min flow rate, 90:10 Water/acetone (hold for 2 minutes). This was followed by a linear gradient over 20 minutes to 100% acetone. The acetone was held for 3 minutes prior to original flow conditions. Column temperature was held at 35° C.
NMR and mass spectral analysis provided unambiguous identification of the novel toxin. […] The euglenoids in culture appear to form the toxin independently of growth phase.

[7] = system: Ht-29 (ATCC HTB-38) adenocarcinoma cell line; experiment: Toxicity against adenocarcinoma cell line Ht-29 (MTS or MTT assay); assay type: cell-based; conditions: summary statement; test of Example 3 / FIG. 3
Experimental: Specifically, cancer cells were grown to mid-exponential growth phase, aliquots were added to tissue culture plates with carrier (control) and varying euglenophycin toxin (25, 50, 100 mg/L final concentration), with and without 5-fluorouracil and maintained in dimethyl sulfoxide. Growth was monitored by colorimetric change associated with respiration using MTS or MTT assay).

Question: For `CCC/C=C\CC/C=C/C=C/C1CCCC(CCCCO)N1` (centres unmarked) [euglenophycin], which “toxicity (cytotoxic activity) towards GH4C1 rat pituitary cells” value [1] is on record?
Answer: Its value is “toxicity”.

Question: And the “effect on culture (chlorophyll a)” value [2]?
Answer: The value was “negatively affected”.

Question: What about the “effect on culture (chlorophyll a)” value [3] of the same compound?
Answer: Its value is “negatively affected”.

Question: And the “effect on culture (chlorophyll a)” value [4]?
Answer: The value was “negatively affected”.

Question: And the “effect on culture (chlorophyll a)” value [5]?
Answer: The value was “negatively affected”.

Question: And the “effect on culture (chlorophyll a)” value [6]?
Answer: The value was “negatively affected”.

Question: And the “fish mortality on re-exposure to the toxin” value (fish)?
Answer: The value was “fish mortalities”.

Question: What about the “activity against cancerous cell lines” value [7] of the same compound?
Answer: Its value is “activity”.
